Assay results as given in patent US20240238423A9, “TETRAHYDROISOQUINOLINE HETEROBIFUNCTIONAL BCL-XL DEGRADERS” (Treeline Biosciences, Inc., priority 2022, published 2024).
Where two headings read alike, the source gives them in different places.

Biological target: T1, Human BCL-XL protein (N-terminal HiBiT tagged BCL-XL in HT1080 cells) (Homo sapiens, UniProt Q07817)
T1 construct: expressed in transfected cells; host or cells: HT-1080 (ATCC CCL-121), stably transduced with lentivirus pLV-UBC-N-HiBiT-BCL-XL-PGK-puro and selected with puromycin
Assay: HiBiT based degradation assay
Assay type: cell-based
Conditions: HT1080 cells expressing HiBiT-BCL-XL; for Ymin (6 h) / Ymin (24 h): BCL-XL degradation normalized with DMSO control; for DC50: BCL-XL degradation
Method in brief: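 HT1080 cells stably transduced by lentivirus with N-terminally HiBiT-tagged human BCL-XL and kept under 1 μg/mL puromycin selection were seeded at three thousand cells per well in 40 μL RPMI 1640 into 384-well plates pre-spotted with compounds across a concentration range. Luminescence was read on a PHERAstar FSX, normalized to DMSO, and fitted with a four-parameter logistic model.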

T1 sequence (Q07817 whole entry): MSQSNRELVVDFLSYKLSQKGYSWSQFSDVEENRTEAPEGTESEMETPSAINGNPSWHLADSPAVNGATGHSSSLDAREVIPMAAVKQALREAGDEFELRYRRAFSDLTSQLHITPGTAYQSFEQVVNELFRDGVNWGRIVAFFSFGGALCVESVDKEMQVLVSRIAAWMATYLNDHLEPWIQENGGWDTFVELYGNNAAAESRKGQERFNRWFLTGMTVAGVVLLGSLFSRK

Cc1cc(OCCCN2CCN(CC(=O)N3CCN(c4cccc5c(C6CCC(=O)NC6=O)nn(C)c45)CC3)CC2)ccc1-c1ccc(N2CCc3cccc(C(=O)Nc4nc5ccccc5s4)c3C2)nc1C(=O)O (stereo not shown) [Compound 152, 6-(8-(Benzo[d]thiazol-2-ylcarbamoyl)-3,4-dihydroisoquinolin-2(1H)-yl)-3-(4-(3-(4-(2-(4-(3-(2,6-dioxopiperidin-3-yl)-1-methyl-1H-indazol-7-yl)piperazin-1-yl)-2-oxoethyl)piperazin-1-yl)propoxy)-2-methylphenyl)picolinic acid]
Ymin (6 h): B (50% ≤ Ymin < 70%)
Ymin (24 h): A (Ymin < 50%)
DC50 (6 h, read-out: EC50 (6 h)): < 100 nM
DC50 (24 h, read-out: EC50 (24 h)): < 100 nM

Cc1cc(OCCCN2CCN(CC(=O)N3CCN(c4ccc5c(C6CCC(=O)NC6=O)nn(C)c5c4)CC3)CC2)ccc1-c1ccc(N2CCc3cccc(C(=O)Nc4nc5ccccc5s4)c3C2)nc1C(=O)O (stereo not shown) [Compound 153, 6-(8-(Benzo[d]thiazol-2-ylcarbamoyl)-3,4-dihydroisoquinolin-2(1H)-yl)-3-(4-(3-(4-(2-(4-(3-(2,6-dioxopiperidin-3-yl)-1-methyl-1H-indazol-6-yl)piperazin-1-yl)-2-oxoethyl)piperazin-1-yl)propoxy)-2-methylphenyl)picolinic acid]
Ymin (6 h): A (Ymin < 50%)
Ymin (24 h): A (Ymin < 50%)
DC50 (6 h, read-out: EC50 (6 h)): < 100 nM
DC50 (24 h, read-out: EC50 (24 h)): < 100 nM

Cc1cc(OCCCN2C[C@@H](C)N(CC(=O)N3CCN(c4ccc5c(C6CCC(=O)NC6=O)nn(C)c5c4)CC3)[C@@H](C)C2)ccc1-c1ccc(N2CCc3cccc(C(=O)Nc4nc5ccccc5s4)c3C2)nc1C(=O)O (stereo partly drawn) [Compound 154a, 6-(8-(Benzo[d]thiazol-2-ylcarbamoyl)-3,4-dihydroisoquinolin-2(1H)-yl)-3-(4-(3-((3R,5S)-4-(2-(4-(3-(2,6-dioxopiperidin-3-yl)-1-methyl-1H-indazol-6-yl)piperazin-1-yl)-2-oxoethyl)-3,5-dimethylpiperazin-1-yl)propoxy)-2-methylphenyl)picolinic acid]
Ymin (6 h): A (Ymin < 50%)
Ymin (24 h): A (Ymin < 50%)
DC50 (6 h, read-out: EC50 (6 h)): < 100 nM
DC50 (24 h, read-out: EC50 (24 h)): < 100 nM

Cc1c(OCCCCCCCCCN2CCN(c3ccc4c(C5CCC(=O)NC5=O)nn(C)c4c3)CC2)cccc1-c1ccc(N2CCc3cccc(C(=O)Nc4nc5ccccc5s4)c3C2)nc1C(=O)O (stereo not shown) [Compound 155, 6-[8-(1,3-benzothiazol-2-ylcarbamoyl)-3,4-dihydro-1H-isoquinolin-2-yl]-3-[3-[9-[4-[3-(2,6-dioxo-3-piperidyl)-1-methyl-indazol-6-yl]piperazin-1-yl]nonoxy]-2-methyl-phenyl]pyridine-2-carboxylic acid]
Ymin (6 h): B (50% ≤ Ymin < 70%)
Ymin (24 h): A (Ymin < 50%)
DC50 (6 h, read-out: EC50 (6 h)): < 100 nM
DC50 (24 h, read-out: EC50 (24 h)): < 100 nM

Cc1c(OCC2CC3(CCN(CC(=O)Nc4ccc5c(C6CCC(=O)NC6=O)nn(C)c5c4)CC3)C2)cccc1-c1ccc(N2CCc3cccc(C(=O)Nc4nc5ccccc5s4)c3C2)nc1C(=O)O (stereo not shown) [Compound 156, 6-(8-(benzo[d]thiazol-2-ylcarbamoyl)-3,4-dihydroisoquinolin-2(1H)-yl)-3-(3-((7-(2-((3-(2,6-dioxopiperidin-3-yl)-1-methyl-1H-indazol-6-yl)amino)-2-oxoethyl)-7-azaspiro[3.5]nonan-2-yl)methoxy)-2-methylphenyl)picolinic acid]
Ymin (6 h): A (Ymin < 50%)
Ymin (24 h): A (Ymin < 50%)
DC50 (6 h, read-out: EC50 (6 h)): < 100 nM
DC50 (24 h, read-out: EC50 (24 h)): < 100 nM

Cc1c(-c2ccc(N3CCc4cccc(C(=O)Nc5nc6ccccc6s5)c4C3)nc2C(=O)NCCCCCCCC(=O)Nc2ccc3c(C4CCC(=O)NC4=O)nn(C)c3c2)cnn1CC12CC3CC(CC(C3)C1)C2 (stereo not shown) [Compound 157, 2-(5-(1-(((3r,5r,7r)-adamantan-1-yl)methyl)-5-methyl-1H-pyrazol-4-yl)-6-((8-((3-(2,6-dioxopiperidin-3-yl)-1-methyl-1H-indazol-6-yl)amino)-8-oxooctyl)carbamoyl)pyridin-2-yl)-N-(benzo[d]thiazol-2-yl)-1,2,3,4-tetrahydroisoquinoline-8-carboxamide]
Ymin (6 h): B (50% ≤ Ymin < 70%)
DC50 (6 h, read-out: EC50 (6 h)): < 100 nM

Cc1c(OCCCC2CCN(CC(=O)Nc3cccc4c(C5CCC(=O)NC5=O)nn(C)c34)CC2)cccc1-c1ccc(N2CCc3cccc(C(=O)Nc4nc5ccccc5s4)c3C2)nc1C(=O)O (stereo not shown) [Compound 158, 6-(8-(benzo[d]thiazol-2-ylcarbamoyl)-3,4-dihydroisoquinolin-2(1H)-yl)-3-(3-(3-(1-(2-((3-(2,6-dioxopiperidin-3-yl)-1-methyl-1H-indazol-7-yl)amino)-2-oxoethyl)piperidin-4-yl)propoxy)-2-methylphenyl)picolinic acid]
Ymin (6 h): C (Ymin ≥ 70%)
Ymin (24 h): B (50% ≤ Ymin < 70%)
DC50 (6 h, read-out: EC50 (6 h)): < 100 nM
DC50 (24 h, read-out: EC50 (24 h)): 100 to 1000 nM

Cc1c(OCCN2C[C@@H](C)N(CC(=O)Nc3ccc4c(C5CCC(=O)NC5=O)nn(C)c4c3)[C@@H](C)C2)cccc1-c1ccc(N2CCc3cccc(C(=O)Nc4nc5ccccc5s4)c3C2)nc1C(=O)O (stereo partly drawn) [Compound 159a, 6-(8-(benzo[d]thiazol-2-ylcarbamoyl)-3,4-dihydroisoquinolin-2(1H)-yl)-3-(3-(2-((3R,5S)-4-(2-((3-(2,6-dioxopiperidin-3-yl)-1-methyl-1H-indazol-6-yl)amino)-2-oxoethyl)-3,5-dimethylpiperazin-1-yl)ethoxy)-2-methylphenyl)picolinic acid]
Ymin (6 h): B (50% ≤ Ymin < 70%)
DC50 (6 h, read-out: EC50 (6 h)): < 100 nM

Cc1c(OCCC[C@@H]2CCN(CC(=O)Nc3ccc4c(C5CCC(=O)NC5=O)nn(C)c4c3)C2)cccc1-c1ccc(N2CCc3cccc(C(=O)Nc4nc5ccccc5s4)c3C2)nc1C(=O)O (stereo partly drawn) [Compound 160a, 6-[8-(1,3-benzothiazol-2-ylcarbamoyl)-3,4-dihydro-1H-isoquinolin-2-yl]-3-[3-[3-[(3R)-1-[2-[[3-(2,6-dioxo-3-piperidyl)-1-methyl-indazol-6-yl]amino]-2-oxo-ethyl]pyrrolidin-3-yl]propoxy]-2-methyl-phenyl]pyridine-2-carboxylic acid]
Ymin (24 h): A (Ymin < 50%)
DC50 (24 h, read-out: EC50 (24 h)): < 100 nM

Cc1c(OCCC[C@H]2CCN(CC(=O)Nc3ccc4c(C5CCC(=O)NC5=O)nn(C)c4c3)C2)cccc1-c1ccc(N2CCc3cccc(C(=O)Nc4nc5ccccc5s4)c3C2)nc1C(=O)O (stereo partly drawn) [Compound 160b, 6-(8-(benzo[d]thiazol-2-ylcarbamoyl)-3,4-dihydroisoquinolin-2(1H)-yl)-3-(3-(3-((3S)-1-(2-((3-(2,6-dioxopiperidin-3-yl)-1-methyl-1H-indazol-6-yl)amino)-2-oxoethyl)pyrrolidin-3-yl)propoxy)-2-methylphenyl)picolinic acid]
Ymin (24 h): A (Ymin < 50%)
DC50 (24 h, read-out: EC50 (24 h)): < 100 nM

Cc1c(O[C@H]2CC[C@H](CCCCN3CCN(c4ccc5c(C6CCC(=O)NC6=O)nn(C)c5c4)CC3)CC2)cccc1-c1ccc(N2CCc3cccc(C(=O)Nc4nc5ccccc5s4)c3C2)nc1C(=O)O (stereo partly shown) [Compound 161a, 6-(8-(benzo[d]thiazol-2-ylcarbamoyl)-3,4-dihydroisoquinolin-2(1H)-yl)-3-(3-(((1s,4r)-4-(4-(4-(3-(2,6-dioxopiperidin-3-yl)-1-methyl-1H-indazol-6-yl)piperazin-1-yl)butyl)cyclohexyl)oxy)-2-methylphenyl)picolinic acid]
Ymin (24 h): A (Ymin < 50%)
DC50 (24 h, read-out: EC50 (24 h)): < 100 nM
